Test systems include A498; BT-549; CCRF-CEM; COLO 205; HL-60; KM12; M14; MCF7; MOLT-4; OVCAR-3; OVCAR-4; OVCAR-5; PC-3; SNB-19; T47D; U-251; UACC-62; SNB-75; NCI-H522.
Assay in all cases: growth of human tumour cells (NCI), 48 h

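Protocol summary: plate cells (96-well), add compound at 5 concentrations, incubate 48 h, interpolate endpoints linearly. Abbreviation: GI50, concentration required for 50% inhibition of growth.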 The source made the active and inactive calls. Cut-off read from the data, not from the text of the source: active = GI50 up to about 1.1 µM and inactive = higher.

Data on 11 compounds can be found in ChEMBL document CHEMBL1201862, “PubChem BioAssay data set” (2004).

In the case of `O=C(CSc1n[nH]c(=O)[nH]c1=O)NNC(=O)c1cccc2nc3ccccc3nc12`, the GI50 in the test on A498 is > 100 µM (inactive); in the test on BT-549 it was 29.2 µM (inactive); with CCRF-CEM it was > 100 µM (inactive); with COLO 205, 31.8 µM (inactive); with HL-60, > 100 µM (inactive); with KM12 it was 79.3 µM (inactive). For the same compound, the GI50 in the test with M14 was 68.1 µM (inactive); in the test with MCF7, 38.2 µM (inactive); in the test with MOLT-4, > 100 µM (inactive); in the test on OVCAR-3, > 100 µM (inactive); in the test on OVCAR-4, > 100 µM (inactive); in the test on OVCAR-5, > 100 µM (inactive). Besides, the GI50 in the test with PC-3 was > 100 µM (inactive); with SNB-19, 64.1 µM (inactive); in the test with T47D, > 100 µM (inactive); with U-251 it was > 100 µM (inactive); with UACC-62, > 100 µM (inactive).
In the case of `Oc1ccc2c(c1)-c1c(c3ccccc3n1CCN1CCOCC1)CC2`, the GI50 was > 100 µM (inactive) in the test with A498; 43.7 µM (inactive) in the test with BT-549; > 100 µM (inactive) in the test with CCRF-CEM; 41.7 µM (inactive) in the test with COLO 205; > 100 µM (inactive) in the test with HL-60; 20 µM (inactive) with KM12. In addition, the GI50 is 27.2 µM (inactive) with M14; 37.2 µM (inactive) with MCF7; > 100 µM (inactive) in the test with MOLT-4; 33.5 µM (inactive) in the test on OVCAR-3; 23.9 µM (inactive) in the test on OVCAR-5; 32.2 µM (inactive) with PC-3. The GI50 with SNB-19 is 38.6 µM (inactive); in the test with SNB-75, 27 µM (inactive); in the test with T47D it was 84.7 µM (inactive); in the test with U-251, 42.3 µM (inactive); with UACC-62 it was 27.5 µM (inactive).
For `COc1ccc(C2SCC(=O)N2c2ccc(-c3ccc(-n4c(-c5ccccc5)nc5ccccc5c4=O)cc3)cc2)cc1OC` (stereo not given), the GI50 with A498 is > 100 µM (inactive); with BT-549, 18.5 µM (inactive); with CCRF-CEM it was 20 µM (inactive); with COLO 205 it was 18.4 µM (inactive); with HL-60, 30.8 µM (inactive); in the test on KM12 it was 7.85 µM (inactive). For the same compound, the GI50 in the test on M14 was 52.7 µM (inactive); in the test on MCF7 it was 27.7 µM (inactive); with MOLT-4, 22.4 µM (inactive); with OVCAR-3, 26.5 µM (inactive); in the test on OVCAR-4, > 100 µM (inactive); in the test with PC-3 it was 42 µM (inactive). Besides, the GI50 in the test with SNB-19 was 84.5 µM (inactive); in the test with SNB-75, 64.1 µM (inactive); in the test with T47D, 22.4 µM (inactive); in the test on U-251 it was 43.8 µM (inactive); with UACC-62, 29.2 µM (inactive).
As for `Cc1ccc(S(=O)(=O)n2cc(-c3cnc(N)c(Br)n3)c3ccccc32)cc1`, the GI50 in the test on A498 is 2.68 µM (inactive); with BT-549, 22.7 µM (inactive); with COLO 205 it was 2.46 µM (inactive); in the test on HL-60, 0.372 µM (active); in the test with KM12, 1.36 µM (inactive); with M14, 1.37 µM (inactive). Moreover, the GI50 in the test on MCF7 was 0.757 µM (active); in the test on MOLT-4, 0.977 µM (active); with OVCAR-3, 1.02 µM (active); with OVCAR-4, 5.18 µM (inactive); with OVCAR-5 it was 4.39 µM (inactive); with PC-3, 2.92 µM (inactive). Besides, the GI50 with SNB-19 is 1.01 µM (active); in the test on SNB-75, 1.42 µM (inactive); in the test on T47D it was 6.76 µM (inactive); in the test on U-251 it was 0.902 µM (active); in the test on UACC-62 it was 3.7 µM (inactive).
Regarding `C=C1c2c(n(S(=O)(=O)c3ccccc3)c3ccccc23)[C@@]2(C(=O)OC)CC3C=CC2N1C3`, the GI50 is > 100 µM (inactive) with BT-549; > 100 µM (inactive) in the test with CCRF-CEM; > 100 µM (inactive) in the test on COLO 205; 8.09 µM (inactive) in the test with HL-60; > 100 µM (inactive) in the test with KM12; > 100 µM (inactive) in the test with M14. Besides, the GI50 in the test on MCF7, in the test with MOLT-4, in the test on NCI-H522, in the test on OVCAR-3, in the test with OVCAR-4 and with OVCAR-5 was > 100 µM (inactive) each time. Moreover, the GI50 with PC-3, in the test with SNB-19, with SNB-75, with T47D, in the test on U-251 and in the test on UACC-62 was > 100 µM (inactive) in each case.
Turning to `CC1=CC(=O)/C(=C/n2c(=S)[nH]c3ccc([N+](=O)[O-])cc32)C(=O)O1`, the GI50 in the test on BT-549 is > 100 µM (inactive); in the test with CCRF-CEM, > 100 µM (inactive); in the test on COLO 205, > 100 µM (inactive); in the test with HL-60, 2.09 µM (inactive); with KM12 it was > 100 µM (inactive); in the test with M14 it was > 100 µM (inactive). For the same compound, the GI50 with MCF7, in the test on MOLT-4, with NCI-H522, in the test with OVCAR-3, in the test on OVCAR-4 and in the test on OVCAR-5 was > 100 µM (inactive) in each case. The GI50 in the test on PC-3, with SNB-19, in the test with SNB-75, with T47D, in the test on U-251 and with UACC-62 was > 100 µM (inactive) each time.
For `COc1cc2ccnc3c2c(c1OC)N(C)C=C3`, the GI50 with A498 is 36.1 µM (inactive); with BT-549, 33 µM (inactive); in the test on COLO 205, 20.5 µM (inactive); in the test on KM12, 25.9 µM (inactive); with M14, 26.3 µM (inactive); in the test on MCF7, 16.6 µM (inactive). The GI50 is 30 µM (inactive) in the test on MOLT-4; 29.4 µM (inactive) with OVCAR-3; 24.5 µM (inactive) in the test on OVCAR-4; 33 µM (inactive) in the test on OVCAR-5; 31.9 µM (inactive) with PC-3; 25.2 µM (inactive) with SNB-19. The GI50 in the test with SNB-75 was 33.6 µM (inactive); in the test with T47D, 32.3 µM (inactive); with U-251, 35.2 µM (inactive); with UACC-62, 26.4 µM (inactive).
Regarding `CCOC(=O)N(CC)c1c(C(F)(F)F)cc(-c2ccccc2)[nH]c1=O`, the GI50 in the test on A498 is 50.7 µM (inactive); in the test on BT-549, 75 µM (inactive); with CCRF-CEM, 16.4 µM (inactive); with COLO 205, 32.4 µM (inactive); in the test on HL-60, 13.6 µM (inactive); in the test with KM12, 36.1 µM (inactive). The GI50 in the test with M14 was 66.4 µM (inactive); in the test with MCF7, 44 µM (inactive); with MOLT-4, 25.8 µM (inactive); in the test on OVCAR-3 it was 37.1 µM (inactive); in the test on OVCAR-4, 30.8 µM (inactive); in the test on OVCAR-5, > 100 µM (inactive). Further, the GI50 with PC-3 was 46.5 µM (inactive); in the test with SNB-19, > 100 µM (inactive); in the test with T47D, 32.7 µM (inactive); with U-251, 55.2 µM (inactive); in the test with UACC-62 it was 66.2 µM (inactive).
Turning to `CC1C2(C)OC(=N)C(C#N)(C(c3cccc([N+](=O)[O-])c3)O2)C1(C#N)C#N` (stereo not given), the GI50 was > 100 µM (inactive) in the test on A498; 31 µM (inactive) with BT-549; 15.6 µM (inactive) in the test with CCRF-CEM; 13.8 µM (inactive) in the test on COLO 205; 13.8 µM (inactive) with HL-60; 44.9 µM (inactive) with KM12. The GI50 in the test on M14 is 19.1 µM (inactive); in the test with MCF7, 22.5 µM (inactive); in the test with MOLT-4, 36.3 µM (inactive); with OVCAR-3, > 10 µM (inactive); in the test on OVCAR-5 it was 34.7 µM (inactive); in the test on PC-3, 30.9 µM (inactive). Besides, the GI50 in the test on SNB-19 is 37.1 µM (inactive); in the test with SNB-75 it was 40.6 µM (inactive); in the test with T47D, 13.7 µM (inactive); in the test on U-251, 21.9 µM (inactive); in the test with UACC-62 it was 17.9 µM (inactive).
Consider `CCN(CC)C(=O)Cn1c(-c2ccccc2)cc2ccccc21`, for which the GI50 is 33 µM (inactive) in the test on BT-549; 24.3 µM (inactive) in the test on CCRF-CEM; 16.6 µM (inactive) in the test with COLO 205; 47.4 µM (inactive) in the test on HL-60; 38.3 µM (inactive) in the test on KM12; 87.3 µM (inactive) in the test on M14. Besides, the GI50 in the test on MCF7 is 33.5 µM (inactive); in the test with MOLT-4, 14.5 µM (inactive); with NCI-H522, 28 µM (inactive); with OVCAR-3, > 100 µM (inactive); in the test on OVCAR-4 it was 66.8 µM (inactive); in the test with OVCAR-5 it was 43.1 µM (inactive). In addition, the GI50 was 22.9 µM (inactive) in the test with PC-3; 42.8 µM (inactive) in the test with SNB-19; 41.5 µM (inactive) with SNB-75; 42 µM (inactive) in the test with T47D; 40.1 µM (inactive) in the test with U-251; > 10 µM (inactive) with UACC-62.
`O=C(O)c1cc(N(Cc2ccccc2O)Cc2cc(O)ccc2O)ccc1O` [LAVENDUSTIN A]: the GI50 with A498 is > 100 µM (inactive); in the test on BT-549, 6.21 µM (inactive); in the test with CCRF-CEM, 45.4 µM (inactive); in the test with COLO 205, > 100 µM (inactive); in the test with HL-60 it was > 100 µM (inactive); with KM12 it was > 100 µM (inactive). Also, the GI50 in the test with M14, with MCF7, in the test on MOLT-4, in the test on OVCAR-3, in the test on OVCAR-4 and with OVCAR-5 was > 100 µM (inactive) each time. For the same compound, the GI50 was 42.3 µM (inactive) in the test on PC-3; > 100 µM (inactive) in the test on SNB-19; > 10 µM (inactive) with SNB-75; > 100 µM (inactive) in the test with T47D; > 100 µM (inactive) in the test with U-251; > 100 µM (inactive) with UACC-62.
